Results on 14 molecules are retold here after ChEMBL document CHEMBL1821610 (Bioorg Med Chem Lett, 2011).

Converted amounts (≈) assume the structure as drawn.

The nature of data set [1]: Oral bioavailability in Beagle dog at 2 mg/kg. Conditions: in vivo. It is filed as ADME, organism-based, Canis lupus familiaris.
Data set [2] can be described thus: Chromatographic hydrophobicity index of the compound at pH 2 by rapid gradient HPLC analysis. It is filed as physicochemical.
A short description of data set [3]: Volume of distribution in Beagle dog at 0.05 mg/kg, iv. It is filed as ADME, organism-based, Canis lupus familiaris. Also on record: dose 0.05 mg/kg, route intravenous. Conditions: in vivo.
The nature of data set [4]: Dissociation constant, pKa of the compound. It is filed as physicochemical.
Data set [5] relates to Plasmodium falciparum. The data set can be described thus: Antimalarial activity against Plasmodium falciparum in po dosed HM-IL2R gamma null mouse assessed as reduction in parasitemia administered once a day for 4 days. In kind it is functional. Conditions: 96 h.
Data set [6] can be described thus: Half life in CD1 mouse at 0.2 mg/kg, iv. Conditions: in vivo. Set-up: dose 0.2 mg/kg, route intravenous. In kind it is ADME, organism-based.
Another data set relates to Canis familiaris. The data set can be described thus: Cmax in Beagle dog at 2 mg/kg, po. It is filed as ADME, organism-based, Canis lupus familiaris. Set-up: dose 2 mg/kg, route oral. Conditions: in vivo.
The nature of data set [7]: Chromatographic hydrophobicity index of the compound at pH 7.4 by rapid gradient HPLC analysis. It is filed as physicochemical.
A short description of data set [8]: Oral bioavailability in CD1 mouse at 10 mg/kg. In kind it is ADME, organism-based. Conditions: in vivo.
The nature of data set [9]: Clearance in Beagle dog at 0.05 mg/kg, iv. It is filed as ADME, organism-based, Canis lupus familiaris. Set-up: dose 0.05 mg/kg, route intravenous. Conditions: in vivo.
Data set [10] in a line: Partition coefficient, log P of the compound. It is filed as physicochemical. The settings on record: octanol/water.
The nature of data set [11]: Solubility of the compound in fed state simulated intestinal fluid at pH 5.0. It is filed as physicochemical.
A short description of data set [12]: Half life in Beagle dog at 0.05 mg/kg, iv. Conditions: in vivo. In kind it is ADME, organism-based, Canis lupus familiaris. Also on record: dose 0.05 mg/kg, route intravenous.
Data set [13] is described as follows: Chromatographic hydrophobicity index of the compound at pH 10.5 by rapid gradient HPLC analysis. In kind it is physicochemical.
Data set [14] can be described thus: Volume of distribution in CD1 mouse at 0.2 mg/kg, iv. It is filed as ADME, organism-based. Set-up: dose 0.2 mg/kg, route intravenous. The settings on record: in vivo.
The test system of the next data set is Mus musculus. The data set can be described thus: Cmax in CD1 mouse at 10 mg/kg, po. In kind it is ADME, organism-based. Also on record: dose 10 mg/kg, route oral. The settings on record: in vivo.
Data set [15] concerns Plasmodium falciparum. The data set can be described thus: Antimalarial activity against Plasmodium falciparum infected in A-positive human erythrocytes assessed as [3H]-hypoxanthine uptake after 24 hrs by liquid scintillation counter. It is filed as functional, organism-based.
The nature of data set [16]: Solubility of the compound in fasted state simulated intestinal fluid at pH 6.8. It is filed as physicochemical.
Data set [17] is described as follows: Solubility of the compound in simulated gastric fluid at pH 1.2. It is filed as physicochemical. Conditions: simulated gi fluid.
Data set [18] can be described thus: Clearance in CD1 mouse at 0.2 mg/kg, iv. It is filed as ADME, organism-based. Also on record: dose 0.2 mg/kg, route intravenous. The settings on record: in vivo.
Data set [19] can be described thus: Solubility of the compound in PBS at pH 7.4. It is filed as physicochemical.

In general, bioavailability refers to the share of a dose that reaches the circulation, judged against a reference dose that is usually intravenous. The Vd is the apparent volume that relates the amount in the body to the concentration in plasma or blood. A low value points to little distribution into tissue. In general, pKa refers to the pH at which an ionisable group is half protonated. Usually ED50 stands for the midpoint of the dose-response relation. The term half-life denotes how long it takes for the measured level to halve. A low value points to rapid decline. The term Cmax denotes the highest concentration seen after dosing. As a reminder, the clearance is the volume of plasma or blood freed of the substance per unit of time. Lower therefore signals a low capacity for elimination. Broadly, the logP is the decadic logarithm of the partition coefficient of the neutral form, usually between octanol and water. A higher logP goes with higher lipophilicity. By solubility is commonly meant the concentration that dissolves in the medium under given conditions. A lower solubility goes with little dissolved substance. Usually IC50 stands for the concentration that gives 50% inhibition. As for `Cc1[nH]c(CO)c(-c2ccc(Oc3ccc(OC(F)(F)F)cc3)cc2)c(=O)c1Cl`, the results for the bioavailability in data set [1] and in [8] were 16% and 50%, respectively. Moreover, the CHI in [2] stood at 2.43; in [7], 2.42; in [13] it was 2.2. For the same molecule, the results for the Vd in data set [3] and in data set [14] were 2.8 L/kg and 1 L/kg, respectively. In data set [4], this molecule registered a pKa of 9.73. In the data set on Plasmodium falciparum [5], the ED50 is 0.6 mg/kg. The values for the half-life in data set [6] and in data set [12] were 3.8 h and 42 h, respectively. Also, the Cmax with Canis familiaris was determined as 300 ng/mL; with Mus musculus, 1100 ng/mL. Also, the results for the clearance in data set [9] and in [18] were 0.8 mL/min/kg and 3 mL/min/kg, respectively. In addition, in data set [10], the logP stood at 4.4. The solubility in data set [11] is 2340 µg/mL (≈ 5500 µM); in data set [16], 690 µg/mL (≈ 1620 µM); in data set [17], 372 µg/mL (≈ 874 µM); in [19], < 100 µg/mL. The IC50 with Plasmodium falciparum [15] is 2 nM.

Consider `Cc1[nH]c(CN(C)C)c(Cl)c(=O)c1-c1ccc(Oc2ccc(OC(F)(F)F)cc2)cc1`, for which, in the data set on Plasmodium falciparum [15], the IC50 was > 250 nM.

On to `Cc1[nH]c(CO)c(Cl)c(=O)c1-c1ccc(Oc2ccc(OC(F)(F)F)cc2)cc1`, for which the IC50 in the data set with Plasmodium falciparum [15] was 130 nM.

For `Cc1[nH]c(CO)c(Cl)c(=O)c1-c1ccc(Oc2cccc(C(F)(F)F)c2)cc1`, the IC50 with Plasmodium falciparum [15] was found to be 120 nM.

As for `Cc1[nH]c(CN2CCCC2)c(Cl)c(=O)c1-c1ccc(Oc2ccc(OC(F)(F)F)cc2)cc1`, the IC50 with Plasmodium falciparum [15] is > 250 nM.

Turning to `Cc1[nH]c(CN2CCOCC2)c(Cl)c(=O)c1-c1ccc(Oc2ccc(OC(F)(F)F)cc2)cc1`, in the data set on Plasmodium falciparum [15], the IC50 is > 250 nM.

For the molecule `Cc1[nH]c(CO)c(-c2ccc(Oc3cccc(C(F)(F)F)c3)cc2)c(=O)c1Cl`, the IC50 in the data set with Plasmodium falciparum [15] came out at 3 nM.

Consider `Cc1[nH]c(CN(C)C)c(-c2ccc(Oc3ccc(OC(F)(F)F)cc3)cc2)c(=O)c1Cl`, for which the IC50 in the data set with Plasmodium falciparum [15] was > 250 nM.

For `Cc1[nH]c(CN2CCCC2)c(-c2ccc(Oc3ccc(OC(F)(F)F)cc3)cc2)c(=O)c1Cl`, the IC50 with Plasmodium falciparum [15] is > 250 nM.

As to `Cc1[nH]c(CN2CCOCC2)c(-c2ccc(Oc3ccc(OC(F)(F)F)cc3)cc2)c(=O)c1Cl`, the IC50 with Plasmodium falciparum [15] is > 250 nM.

With `Cc1[nH]c(C(=O)O)c(-c2ccc(Oc3ccc(OC(F)(F)F)cc3)cc2)c(=O)c1Cl`, the IC50 in the data set on Plasmodium falciparum [15] was > 250 nM.

Regarding `Cc1[nH]c(C(=O)N(C)C)c(-c2ccc(Oc3ccc(OC(F)(F)F)cc3)cc2)c(=O)c1Cl`, the IC50 with Plasmodium falciparum [15] was > 250 nM.

For the molecule `Cc1[nH]c(C)c(-c2ccc(Oc3ccc(OC(F)(F)F)cc3)cc2)c(=O)c1Cl`, the bioavailability in data set [1] is 4.4%; in data set [8], 20%. The CHI in [2] is reported as 2.75; in data set [7], 2.79; in data set [13], 2.77. Besides, the Vd in data set [3] was found to be 2.9 L/kg; in [14] it was 1.2 L/kg. In data set [4], this molecule yielded a pKa of 10.1. In addition, the half-life is 24.1 h in data set [6] and 143 h in data set [12]. Moreover, the Cmax is 30 ng/mL with Canis familiaris and 900 ng/mL in the data set on Mus musculus. Moreover, the figures for the clearance in [9] and in [18] were 0.2 mL/min/kg and 0.6 mL/min/kg, respectively. In data set [10], the logP came to 4.8. Further, the solubility is 700 µg/mL (≈ 1710 µM) in data set [11], 500 µg/mL (≈ 1220 µM) in [16], 287 µg/mL (≈ 700 µM) in [17] and < 100 µg/mL in data set [19]. In the data set on Plasmodium falciparum [15], the IC50 was 7 nM.

`Cc1[nH]c(C)c(-c2ccc(Oc3cccc(C(F)(F)F)c3)cc2)c(=O)c1Cl`: in the data set on Plasmodium falciparum [15], the IC50 was 3 nM.
